# From a melting point compilation (Tetko et al.; mined from patent text by program, amines drawn as free bases though some values may be those of a salt)
row,Structure (SMILES),melting point
1,CC(C)[C@H](NC(=O)OC(C)(C)C)C(=O)Nc1c(C(=O)CC(=O)Nc2nccs2)cccc1C(F)(F)F,120 °C
2,CCCCc1oc2ccc(-c3nc(C)no3)cc2c1C(=O)c1ccc(O)cc1,180 to 182 °C
3,Cc1cccc(NC(=O)NC(CC(N)=O)C(=O)N(CC(=O)OC(C)(C)C)c2ccccc2)c1 (racemic),192 °C
4,OC(Cn1cncn1)(c1ccc(F)cc1F)C(F)(F)C(F)(F)F (stereo not drawn),95 to 96 °C
5,O=C(Cc1ccc(O)cc1)Nc1c(-c2cc(Cl)ccc2O)c2cc(C(F)(F)F)ccc2[nH]c1=O,218 to 221 °C
6,O=c1c(N2CCNCC2)nccn1CCOc1cc(F)cc(F)c1,119 to 121 °C
7,CCCc1c(C(=O)C(C)C)c2ccc(C(=O)OC)cc2n1Cc1ccccc1[N+](=O)[O-],166 °C
8,Cc1nn2c(c1C(N)=O)NCCC2,234 to 236 °C
9,CC(=O)OCC(=O)C1(O)C(C)CC2C3CCC4=CC(=O)CCC4(C)C3=CCC21C (stereo not drawn),197 to 201 °C
10,O=C(c1cnoc1)N1CCCCC1,78 to 81 °C
11,O=c1c(Br)c(OCc2cccc(Cl)c2)ccn1Cc1cccc(F)c1,149 to 153 °C
12,CC1CC(=O)N(c2ccc(Cl)cc2)C(=O)C1,163 to 164 °C
13,CSC(=O)C(=O)c1ccc(NC=O)nc1,152 to 154 °C
14,NC(=O)c1cn(-c2ccccc2)nc1-c1ccc([N+](=O)[O-])o1,236 to 238 °C
15,CC(=O)c1c(C)c(NC(=O)NC(C)(C)C)c(C)c2c1OCC2c1ccc(C(C)C)cc1 (stereo not drawn),207 to 208 °C
16,CCOC(=O)C(CC)Oc1ccccc1C(C)=O (stereo not drawn),43 to 45 °C
17,"Cc1ccc(C(=O)NC(NC(=NC#N)Nc2cccnc2)C(C)(C)C)cc1 (single isomer, unassigned; (+))",188 to 189 °C
18,[N-]=[N+]=NCCCn1cnc(-c2ccc(F)cc2)c1-c1ccncc1,64 to 65 °C
19,O=C(O)CCc1oc(N2CCN(c3ccccc3)CC2)nc1-c1ccc(Cl)cc1,177 to 178 °C
20,CC(=O)OC1OCC[C@@H]1NC(=O)[C@H](CC(C)C)NC(=O)[C@H](CC(C)C)NC(=O)c1ccc2c(c1)Nc1ccccc1S2 (stereo partly drawn),121 to 122 °C
21,N#Cc1cc(F)cc(-c2cc(N)c3c(c2)C2(CCCCC2)C(=O)N3)c1,241 to 243 °C

row,Structure (SMILES),melting point
1,CCOC(=O)CCC(CCCCNS(=O)(=O)c1ccc(Cl)cc1)CCOc1cccnc1 (stereo not drawn),90 to 93 °C
2,COC(=O)C(C#N)=C(C=CN(C)C)c1ccc(OC)cc1,175 to 178 °C
3,COc1ccc(C(=O)c2ccccc2F)c(O)c1C,118 to 120 °C
4,C=Cc1ccc(-n2cnc([N+](=O)[O-])n2)c(C#N)c1,103 to 105 °C
5,Oc1ccc(Nc2nc(NCc3ccco3)nc(Nc3ccc(Br)cc3)n2)cc1,37 to 39 °C
6,Cc1ccc(CNc2cccc3c2CN(C2CCC(=O)NC2=O)C3=O)o1 (stereo not drawn),242 to 244 °C
7,CC(C)CCCC(C)C1CCC2C3CCC4CC(OC(=O)c5ccccc5)CCC4(C)C3CCC12C (stereo not drawn),215 to 216 °C
8,CC(C)(C)OC(=O)N(CC(=O)OCN1C(=O)CCC(N2C(=O)c3ccccc3C2=O)C1=O)C(=O)CN (stereo not drawn),178 to 181 °C
9,C=CCNC(=O)Nc1ccccc1CCc1cc(C(C)(C)C)c(O)c(C(C)(C)C)c1,169 to 172 °C
10,C#Cc1cccc(OCC2=CC=C(CO)SS2)c1,70.5 to 71.5 °C
11,CC(CCc1ccc(Cl)cc1)(Cn1ccnc1)Sc1cc(Cl)ccc1Cl (stereo not drawn),150 °C
12,Cc1c(NC(=O)c2ccc(CC(=O)C3CC3)cc2)ccc2cc(CN3CCCC3)cnc12,200 to 201 °C
13,CC(C)c1ccc2c(=O)c(S(C)=O)cn(C)c2c1 (stereo not drawn),214 to 215 °C
14,Cc1ccc(-c2n[nH]cc2-c2ccnc(Cl)n2)cc1,194 to 197 °C
15,O=C(OCc1ccccc1)N1CCN2C(=O)OCC2C1 (racemic),85.5 to 86.5 °C
16,CSC12SCC(COC(C)=O)(OS(C)(=O)=O)C(C(=O)OCc3ccc([N+](=O)[O-])cc3)N1C(=O)C2N=[N+]=[N-] (stereo not drawn),147 °C
17,CC(C)(C)c1ccc2c3c(c(=O)oc2c1)CNCC3,181 to 186 °C
18,O=C(O)CC1(c2ccccc2)CCCC1C(=O)O (stereo not drawn),205 to 208 °C
19,CCOC(=O)n1cc(C#N)c(-c2ccc(F)c(Cl)c2F)c1,132 °C
20,C=C(C)C(=O)Nc1ccc(O)c(C(=O)O)c1,218 °C
21,COc1ccc(CC(=O)c2cccnc2)cc1OC,188 to 191 °C

# Next, values leading:
row,melting point,Structure (SMILES)
1,249 to 251 °C,Cc1cc(-c2nnc3c4ccccc4c(OCc4ncn(C)n4)nn23)no1
2,118 to 120 °C,CCCCCCCCNC(=O)c1ccc(O)c(O)c1
3,166 to 170 °C,CC(C)(C)c1cc(OC(=O)N2CC(O)C2)cc(C(C)(C)C)c1
4,180 to 181 °C,CN1OCC/C(=C\c2nc(C(C)(C)C)c(O)c(C(C)(C)C)n2)C1=O
5,191 to 194 °C,O=C(Nc1cccnc1)c1ccc([N+](=O)[O-])cc1
6,213 to 214 °C,CCNc1nc(C)c(-c2ccnc(Nc3ccc(N4CCOCC4)c(C)c3)n2)s1
7,192 to 196 °C,O=C1N2CCc3ccsc3C23SC1(c1ccccc1)CC3[N+](=O)[O-] (stereo not drawn)
8,50 to 53 °C,Cc1cc(OC(=O)C(C)(C)C)c(C)c(C)c1OCc1ccccc1
9,200 to 201 °C,CC1(C)CCC(C)(C)c2cc(NC(=O)c3ccc(C(=O)O)nc3)ccc21
10,110 to 112 °C,Cc1cccc(C(F)(F)C(F)(F)c2ccccc2)c1C
11,227 to 228 °C,Cc1nc(-c2ccc3c(=O)n(CC(C)C)c(CNC(=O)OC(C)(C)C)c(-c4ccccc4)c3c2)sc1C(N)=O
12,157 to 158 °C,CCCCOc1c(CNC(=O)OC(C)(C)C)n(CC(C)C)c(=O)c2ccc(-c3ccco3)cc12
13,133 to 134 °C,O=C1N(c2ccccc2)CC(CCl)C1(Cl)Cl (stereo not drawn)
14,96 to 97 °C,COc1cc(CCC(=O)O)cc(I)c1O
15,157 to 160 °C,CSC1=Nc2ccc(C)cc2Cn2nnnc21
16,210 to 213 °C,O=c1[nH]nc(-c2ccc(OC3CCN(C4CCC4)CC3)cc2)c2c1CCC2
17,102 to 104 °C,CCOC(=O)C=Cc1ccc(CCNS(=O)(=O)C=Cc2ccccc2)cc1
18,268 to 270 °C,CCC[C@H](NC(=O)[C@H](C)N)C(=O)N[C@@H](C)P(=O)(O)O
19,150 to 152 °C,COC(=O)c1c([N+](=O)[O-])cccc1[N+](=O)[O-]

row,melting point,Structure (SMILES)
1,220 to 221 °C,CC(=O)n1ccc(-c2c(-c3ccncc3)c(-c3ccc(F)cc3)nn2CCO)cc1=O
2,220 to 222 °C,CC(=O)Nc1cc(O)c(C(=O)NC2CCN(Cc3ccccc3)CC2)cc1[N+](=O)[O-]
3,148 to 149 °C,CC(C)OC1C=CC(=O)N1S(=O)(=O)c1ccccc1 (stereo not drawn)
4,315 °C,c1ccc(-c2ccc(-n3c4ccccc4c4c3ccc3c5ccccc5n(-c5ccc(-c6ccccc6)cc5)c34)cc2)cc1
5,202 to 204 °C,CCSc1nc(=O)n(CC(C)(C)C)c(=O)n1N
6,60 to 62 °C,CCOC(=O)c1ncc2c(c1COC)c1c(OS(=O)(=O)C(F)(F)F)cccc1n2S(=O)(=O)C(F)(F)F
7,311 to 313 °C,COc1ccc(-c2c3c(cc4ccc5c(c24)OCO5)C(=O)NC3=O)cc1
8,267 to 269 °C,NC(=O)c1sc2nccc(N3CCCC(c4ccccc4)C3)c2c1N (stereo not drawn)
9,60 to 61 °C,Clc1ccc([Si](Cl)(Cl)Cl)cc1
10,201 to 202 °C,COCCc1nc2c(N)nc3cc(-c4ccccc4)ccc3c2n1CCCCNS(C)(=O)=O
11,192 to 193 °C,CN(c1cccc2cc(C3=NCCS3)[nH]c12)S(=O)(=O)c1cccs1
12,175 to 177 °C,COc1cc(C2=CCN(S(=O)(=O)CC(=O)NO)CC2)ccc1-c1ccccc1
13,79 to 81 °C,O=C(CCl)Nc1ccccc1C(=O)c1ccccc1C(F)(F)F
14,159 to 163 °C,Cc1c(NC(=O)c2ccc(OC[C@@H]3CCCO3)cc2)ccc2cc(CNC3CCCC3)[nH]c12
15,72 °C,COc1ccc(C(=O)CC(=O)C(F)(F)C(F)(F)F)cc1OC
16,137 to 139 °C,Nc1cc(O)ccc1F
17,164 to 166 °C,COC(=O)N(C)c1cccc(-c2ccc3nnc(C)n3n2)c1
18,91 °C,CCN1C(=O)C(OC(=O)C(C)(C)C)=C(c2c(C)cc(C)cc2C)C1=O
19,104 to 109 °C,CCN1C(=O)C(C)(C)C(=O)N(C)c2cc(CN(CCn3ccc4oc(C)cc4c3=O)Cc3nc(C)n4ccccc34)ccc21

row,melting point,Structure (SMILES)
1,204 to 205 °C,CC(C)(C)Sc1c(CC(C)(C)C(=O)O)n(Cc2ccc(Cl)cc2)c2ccc(OCc3cccs3)cc12
2,127 to 128 °C,CSc1ccc2cc(Nc3ccc(O)cc3)ccc2c1
3,101 to 115 °C,COC(=O)c1cccc(-c2ccccc2)c1S(C)(=O)=O
4,63 to 64 °C,O=C(CCCCC1CCSS1)NO (stereo not drawn)
5,159 to 160 °C,CC(C(N)=O)c1ccc2c(c1)Oc1ccccc1CC2=O (stereo not drawn)
6,117 to 121 °C,CN(C)c1ccc(C(=O)OC2=C([C@H]3CC[C@H](c4ccc(Cl)cc4)CC3)C(=O)c3ccccc3C2=O)cc1
7,175 to 179 °C,O=C(Nc1cccc(O)c1)C(=O)N1CCC(Cc2ccc(F)cc2)CC1
8,148 to 150 °C,NC(=O)c1cn(CCO)nc1[N+](=O)[O-]
9,148 °C,CC#CCOc1cc(Nc2cccc(F)c2F)ncn1
10,286 to 287 °C,Cn1cncc1S(=O)(=O)O
11,110 to 118 °C,c1ccc(Cc2nnn[nH]2)c(COc2ccc3oc(-c4nc5c(s4)NCCCC5)cc3c2)c1
12,222 to 223 °C,CCOC(=O)c1cccc(-c2ccc3c(c2)N(C(=O)Cc2cccc(C(F)(F)F)c2)CC3)c1
13,79 to 80 °C,CC1CC(=O)N(CCCCN2C(=O)c3ccccc3C2=O)C1=O (stereo not drawn)
14,140 °C,CCN(CC)CCN(C)C1(c2ccccc2Cl)C(=O)Nc2ccc(Cl)cc21 (stereo not drawn)
15,163 to 165 °C,CC(C)C(NS(=O)(=O)c1ccccc1)C(=O)NOCc1ccccc1 (stereo not drawn)
16,214 to 216 °C,C=CCOc1cc(C(O)(C(F)(F)F)C(F)(F)F)cc2c(C)cc(=O)[nH]c12
17,233 to 236 °C,O=C(NCc1ccc(Cl)cc1)c1cnc2sc(C#CCO)cc2c1O
18,192 to 194 °C,CC(C)(C)[C@@H](CO)NC(=O)[C@@H](CC(=O)O)n1ccc(-c2ccc(-c3ccncc3)cc2)c1
